US20120142645A1, “NEUROACTIVE STEROID COMPOSITIONS AND METHODS OF USE FOR LOWERING CHOLESTEROL” (priority 2009, published 2012)
Entries after “also recorded” stand apart in the source; their conditions may differ. Marks after values point to notes of the source that are not given here.

Columns and labels:
humans = conditions: cited from earlier work
[1] = tested on: patients with schizophrenia or schizoaffective disorder; assay: Serum analytes and EKG QTc interval at screening and final visit; same trial; assay type: in vivo, human; conditions: for Serum LDL levels post-treatment compared to baseline: paired t-test p=0.002; for EKG QTc interval / Serum Cholesterol / Serum Glucose / Serum Prolactin / Serum TSH / Serum Triglycerides / Serum LDL / Serum HDL: mean ± SD; for Serum LDL: n = 7; for Serum HDL: n = 8
From the text: (§1) During the screening visit (Visit 1), patients received a physical exam, vital signs, and electrocardiogram (EKG), as well as baseline laboratory measures consisting of serum electrolytes, glucose, creatinine, blood urea nitrogen (chemistry 7 panel), liver function tests, complete blood count (CBC), urinalysis, urine toxicology test, thyroid stimulating hormone (TSH), and prolactin, and serum pregnancy test if female. These tests were also repeated at the completion of the study (Visit 6). In addition, patients received an interim EKG 4 weeks post-randomization, as well as a serum pregnancy test if female (Visit 4). Patients also received a chemistry 7 panel, CBC, and liver function tests at Visits 2, 3, 4, and 5 (i.e., at all study visits). Psychiatric symptoms were assessed at baseline using the Scale for the Assessment of Negative Symptoms (Andreasen, 1983), the Positive and Negative Symptom Scale (PANSS; Kay et al., 1987), the Calgary Depression Rating Scale (CDRS; Addington et al., 1990), the Clinical Global Impressions Improvement (CGI-I) and Severity (CGI-S) scales, the Barnes Akathisia Scale (BAS; Barnes, 1989), the Simpson Angus Scale for Extrapyramidal Symptoms (SAS; Simpson & Angus, 1970), the Quality of Life Scale (QOL; Heinrichs et al., 1984), and the Hillside Side Effects Scale. One research nurse with five years of experience in the conduction of schizophrenia clinical trials completed both psychiatric and cognitive assessments throughout the study, and was trained to one point of divergence on each PANSS item.

[2] = Serum neurosteroid and steroid levels (GC/MS, RIA) at baseline and post-treatment; same trial; conditions: for Serum Androstenedione level / Serum Cortisol level / Serum DHEA level / Serum DHEAS level / Serum PGS (pregnenolone sulfate) level / Serum Total testosterone level / Serum Estradiol level / Serum ALLO (allopregnanolone) level / Serum Free testosterone level / Serum PG (pregnenolone) level / Serum Progesterone level: mean ± SD; for Serum Estradiol level: n = 7; for Serum ALLO (allopregnanolone) level / Serum Free testosterone level / Serum PG (pregnenolone) level / Serum Progesterone level: n = 8; for Serum testosterone, free testosterone, cortisol, DHEA, estradiol, or androstenedione levels: after 8 weeks of pregnenolone vs baseline
Procedure: Study drug was dispensed every 2 weeks at each study visit at fixed escalating doses as follows: Visit 1: Two-week single-blind placebo lead-in phase, one placebo tablet twice each day (all pts), Visit 2: Randomization to PREG 50 mg twice each day (100 mg/day total) or placebo for 2 wks, Visit 3: PREG 150 mg twice each day (300 mg/day total) or placebo for 2 weeks, Visit 4: PREG 250 mg twice each day (500 mg/day total) or placebo for 2 weeks, Visit 5: PREG 250 mg twice each day (500 mg/day total) or placebo continued for 2 weeks. Patients thus received PREG 500 mg per day in divided doses during the last 4 weeks of the study. Patients also received the Hillside Adverse Events Scale at Visits 2-6, and during staggered telephone check-in calls every two weeks, beginning one week into the single-blind placebo lead-in phase.
Neurosteroid Analyses. […] One mL of serum was extracted three times in ethyl acetate prior to high performance liquid chromatography (HPLC) purification utilizing tetrahydrofuran, ethanol, and hexane in the mobile phase. All samples were injected in duplicate. […] All other serum steroid levels were determined utilizing commercially available radioimmunoassay (RIA) kits according to manufacturer directions (progesterone, cortisol, testosterone, free testosterone, and DHEAS: Diagnostic System Laboratories, Webster, Tex.). DHEA serum levels were determined utilizing a kit from ICN Pharmaceuticals (Costa Mesa, Calif.).
Statistical Analysis. Primary endpoints were changes from baseline at Visit 2 following a two-week placebo lead-in period (all patients) to final assessment at Visit 6 in cognitive symptoms (as assessed by BAGS and MATRICS composite scores) and negative symptoms (as assessed by SANS total scores). […] Student's t-tests were conducted on the change scores between treatment groups in this proof-of-concept study (two-tailed alpha p=0.05 for each statistical test).

[3] = tested on: patients with schizophrenia or schizoaffective disorder; assay: Side effect profile and tolerability (Hillside AE Form); same trial; assay type: in vivo, human
From the text: as §1

[4] = single oral dose 175 mg; over the course of 4-8 hours; Roberts, 1995; cited from earlier work
[5] = after 8 weeks of pregnenolone, listed as Pregnenolone
[6] = after 8 weeks of pregnenolone, listed as pregnenolone
[7] = change from baseline pre-randomization, n = 9
[8] = change from baseline pre-randomization, n = 9, mild in all subjects
[9] = change from baseline pre-randomization, n = 9, mild in all subjects, listed as pregnenolone

CC(=O)[C@H]1CC[C@H]2[C@@H]3CC=C4C[C@@H](O)CC[C@]4(C)[C@H]3CC[C@]12C [PG, pregnenolone]
Tolerability in healthy volunteers (humans; 15-30 mg/day, no significant side effects compared to placebo, Meieran et al., 2004): generally well-tolerated
Safety and tolerability in humans (humans; 25-500 mg/day, studies of the 1940s and 1950s): safe and well-tolerated
EKG QTc interval following treatment ([1]; 8 weeks of pregnenolone): no change
Laboratory parameters including glucose, triglycerides, HDL, TSH, and prolactin, post-treatment compared to baseline ([1]; 8 weeks of pregnenolone): no significant changes
Serum LDL levels post-treatment compared to baseline ([1]; 8 weeks of pregnenolone, listed as Pregnenolone): significantly decreased
Serum LDL levels post-treatment compared to baseline ([1]; 8 weeks of pregnenolone, listed as pregnenolone): significantly reduced; also recorded: significantly decreased
Cholesterol levels following treatment compared to baseline ([1]; 8 weeks of pregnenolone, paired t-test p=0.008): significantly decreased
EKG QTc interval ([1]; Screening): 414.8 ± 19.2 ms
Serum Cholesterol ([1]; Screening): 185.8 ± 43.3 mg/100 ml
Serum Glucose ([1]; Screening): 117.9 ± 36.2 mg/100 ml
Serum Prolactin ([1]; Screening): 7.69 ± 5.91 ng/mL
Serum TSH ([1]; Screening): 1.45 ± 0.64 μIU/ml
Serum Triglycerides ([1]; Screening): 194.3 ± 87.8 mg/100 ml
Serum LDL ([1]; Screening): 119.1 ± 26.0 mg/100 ml
Serum HDL ([1]; Screening): 39.3 ± 16.5 mg/100 ml
EKG QTc interval ([1]; Week 8): 406.8 ± 20.9 ms
Serum Glucose ([1]; Week 8): 119.0 ± 33.5 mg/100 ml
Serum Prolactin ([1]; Week 8): 7.85 ± 6.47 ng/mL
Serum TSH ([1]; Week 8): 1.26 ± 0.72 μIU/ml
Serum Triglycerides ([1]; Week 8): 237.6 ± 119.5 mg/100 ml
Serum LDL ([1]; Week 8, p 0.002 vs screening): 90.9 ± 29.4 mg/100 ml
Serum HDL ([1]; Week 8): 37.0 ± 17.4 mg/100 ml
Serum Cholesterol ([1]; Week 8, p 0.008 vs screening): 166.6 ± 36.2 mg/100 ml
Glucose levels, serum electrolyte panels, thyroid stimulating hormone, prolactin levels, and liver function tests ([1]; during the 8-week trial): unchanged
Serum Androstenedione level ([2]; Week 0 (baseline)): 2.93 ± 1.30 ng/mL
Serum Cortisol level ([2]; Week 0 (baseline)): 8.08 ± 2.80 μg/100 ml
Serum DHEA level ([2]; Week 0 (baseline)): 7.85 ± 5.94 ng/mL
Serum DHEAS level ([2]; Week 0 (baseline)): 124.72 ± 86.52 μg/100 ml
Serum PGS (pregnenolone sulfate) level ([2]; Week 0 (baseline)): 33.4 ± 18.3 ng/mL
Serum Total testosterone level ([2]; Week 0 (baseline)): 302.83 ± 158.53 ng/100 ml
Serum Estradiol level ([2]; Week 0 (baseline)): 24.64 ± 6.21 pg/mL
Serum ALLO (allopregnanolone) level ([2]; Week 0 (baseline)): 110.7 ± 78.9 pg/mL
Serum Free testosterone level ([2]; Week 0 (baseline)): 7.96 ± 1.07 pg/mL
Serum PG (pregnenolone) level ([2]; Week 0 (baseline)): 499.9 ± 313.6 pg/mL
Serum Progesterone level ([2]; Week 0 (baseline)): 0.38 ± 0.15 ng/mL
Serum Androstenedione level ([2]; Week 8): 3.01 ± 4.66 ng/mL
Serum Cortisol level ([2]; Week 8): 7.96 ± 3.85 μg/100 ml
Serum DHEA level ([2]; Week 8): 6.33 ± 3.26 ng/mL
Serum DHEAS level ([2]; Week 8): 144.87 ± 97.30 μg/100 ml
Serum PGS (pregnenolone sulfate) level ([2]; Week 8): 94.4 ± 14.3 ng/mL
Serum Total testosterone level ([2]; Week 8): 303.08 ± 156.05 ng/100 ml
Serum Estradiol level ([2]; Week 8): 25.42 ± 4.73 pg/mL
Serum ALLO (allopregnanolone) level ([2]; Week 8): 823.1 ± 528.9 pg/mL
Serum Free testosterone level ([2]; Week 8): 7.31 ± 2.04 pg/mL
Serum PG (pregnenolone) level ([2]; Week 8): 2096.0 ± 999.4 pg/mL
Serum Progesterone level ([2]; Week 8, listed as Pregnenolone): 2.17 ± 0.64 ng/mL
Serum Progesterone level ([2]; Week 8, listed as pregnenolone): 2.17 ng/mL
Increase in serum DHEAS levels over baseline ([2]; after 8 weeks of pregnenolone): approximately 16%
Increase in serum PGS levels over baseline ([2]; after 8 weeks of pregnenolone): tripled
Increase in serum progesterone over baseline ([2]; after 8 weeks of pregnenolone): over four-fold
Serum testosterone, free testosterone, cortisol, DHEA, estradiol, or androstenedione levels ([2]; listed as Pregnenolone): did not result in downstream elevations
Serum testosterone, free testosterone, cortisol, DHEA, estradiol, or androstenedione levels ([2]; listed as pregnenolone): did not increase
Elevation in serum levels of PG over baseline [2, 5]: approximately four-fold elevations
Increase in serum ALLO over baseline [2, 5]: five-fold elevations
Elevation in serum levels of PG over baseline [2, 6]: approximate four-fold increase
Increase in serum ALLO over baseline [2, 6]: five-fold
Serious adverse event related to study medication ([3]; 8-week trial): No patients receiving pregnenolone experienced a serious adverse event
Side effect: Akathisia [3, 7]: 0 N (%)
Side effect: All Other Side Effects [3, 7]: 0 N (%)
Side effect: Blurred Vision [3, 7]: 0 N (%)
Side effect: Diarrhea [3, 7]: 0 N (%)
Side effect: Drowsiness [3, 7]: 0 N (%)
Side effect: Excitation/Agitation [3, 7]: 0 N (%)
Side effect: Headache [3, 7]: 0 N (%)
Side effect: Impaired Sexual Performance [3, 7]: 0 N (%)
Side effect: Insomnia [3, 7]: 0 N (%)
Side effect: Joint Pain/Stiffness [3, 7]: 0 N (%)
Side effect: Malaise [3, 7]: 0 N (%)
Side effect: Nasal Congestion [3, 7]: 0 N (%)
Side effect: Peripheral Edema [3, 7]: 0 N (%)
Side effect: Rigidity [3, 7]: 0 N (%)
Side effect: Sweating [3, 7]: 0 N (%)
Side effect: Tremor [3, 7]: 0 N (%)
Side effect: Hypertension ([3]; change from baseline pre-randomization, n = 9, mild (<145/90)): 1 (11%)^b N (%)
Side effect: Cold Extremities [3, 8]: 1 (11%)^a N (%)
Side effect: Decreased Interest in Sex [3, 8]: 1 (11%)^a N (%)
Side effect: Disorientation (to date, address, mayor, or MD name) [3, 8]: 2 (22%)^a N (%)
Side effect: Dry mouth [3, 8]: 1 (11%)^a N (%)
Side effect: Muscle Pain/Stiffness [3, 8]: 1 (11%)^a N (%)
Side effect: Restlessness [3, 8]: 2 (22%)^a N (%)
Side effect: Cold Extremities [3, 9]: one report of mild cold extremities; also recorded: one instance of mild cold extremities
Side effect: Muscle Pain/Stiffness [3, 9]: one report of mild muscle pain/stiffness; also recorded: one instance of mild muscle pain/stiffness
Side effect: Restlessness [3, 9]: two reports of mild restlessness; also recorded: two instances of mild restlessness
Tolerability ([3]; doses up to 500 mg/day, 8 weeks): very well-tolerated
Weight gain, blood pressure, or pulse rate changes ([3]; during the course of the study): did not demonstrate significant weight gain, blood pressure, or pulse rate changes
Serum pregnenolone levels after single oral dose [4]: approximately doubles
